According to patent US11225505B2, “Antimicrobial polymyxin derivative compounds” (MONASH UNIVERSITY, priority 2015, dated 2022):
≈ marks a conversion by molar mass, not a printed value. Where a SMILES comes first, the peptide text is derived from it. Bridges are numbered along the chain shown (N, C = ends). [ ]: non-standard residue; d: D form. The star is where a group is joined. Benzothiazole(2-CH2CH2CO) = O=C(CCc1nc2ccccc2s1)*; X16 = O=C(c1cnc(-c2ccccc2)nc1)*; X39 = O=C(c1noc2ccccc12)*; X67 = O=C(c1cc(Br)sc1Br)*; X7 = O=C(c1nc2ccccc2o1)*; Dab = NCC[C@H](N)C(=O)O; Abu = CC[C@H](N)C(=O)O; Dap = NC[C@H](N)C(=O)O

Tests used:
Type in all cases: cell-based
[1] = system: Pseudomonas aeruginosa FADDI-PA038; settings: FADDI-PA038
Outline: (§1)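 Lipopeptides (TFA salts) tested against Gram-negative strains by CLSI broth microdilution using cation-adjusted Mueller-Hinton broth; MIC recorded, polymyxin B sulphate as control.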

[2] = system: Pseudomonas aeruginosa FADDI-PA01; settings: FADDI-
Outline: as §1

[3] = system: Acinetobacter baumannii ATCC 17978; settings: ATCC 17978
Outline: as §1

[4] = system: Enterobacter cloacae FADDI-EC001; settings: FADDI-EC001
Outline: (§2)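 Broth microdilution MIC per CLSI in cation-adjusted Mueller-Hinton broth, lipopeptides tested as TFA salts. Polymyxin B sulphate served as control.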

[5] = system: Klebsiella pneumoniae FADDI-KP022; settings: FADDI-KP022
Outline: as §1

[6] = system: Enterobacter cloacae FADDI-EC003; settings: FADDI-EC003
Outline: as §1

[7] = system: Klebsiella pneumoniae FADDI-KP032; settings: FADDI-KP032
Outline: as §1

[8] = system: Pseudomonas aeruginosa FADDI-PA022; settings: FADDI-PA022
Outline: as §1

[9] = system: Acinetobacter baumannii FADDI-AB034; settings: FADDI-AB034
Outline: as §1

[10] = system: Pseudomonas aeruginosa ATCC 27853; settings: ATCC 27853
Outline: as §1

[11] = system: Enterobacter cloacae FADDI-EC006; settings: FADDI-EC006
Outline: as §1

[12] = system: Klebsiella pneumoniae Kp BM1; settings: Kp BM1
Outline: as §2

[13] = system: Acinetobacter baumannii FADDI-AB030; assay: microbe, parasite or virus in culture; settings: FADDI-AB030
Outline: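 Lipopeptide TFA salts tested against the multidrug-resistant clinical isolate by CLSI (M100-S24) broth microdilution in cation-adjusted Mueller-Hinton broth, with polymyxin B sulphate as control; MIC read.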

Row | SMILES | Minimum inhibitory concentration [1] | Minimum inhibitory concentration [2] | Minimum inhibitory concentration [3] | Minimum inhibitory concentration [4] | Minimum inhibitory concentration [5] | Minimum inhibitory concentration [6] | Minimum inhibitory concentration [7] | Minimum inhibitory concentration [8] | Minimum inhibitory concentration [9] | Minimum inhibitory concentration [10] | Minimum inhibitory concentration [11] | Minimum inhibitory concentration [12] | Minimum inhibitory concentration [13]
1 | CC[C@@H]1NC(=O)[C@@H](CC(C)C)NC(=O)[C@H](CCN)NC(=O)[C@@H](NC(=O)[C@H](CN)NC(=O)[C@@H](NC(=O)[C@H](CCN)NC(=O)CCc2nc3ccccc3s2)[C@@H](C)O)CCNC(=O)[C@H]([C@@H](C)O)NC(=O)[C@H](CCN)NC(=O)[C@H](CCN)NC1=O [Compound 72] ({Benzothiazole(2-CH2CH2CO)}-[Dab]T[Dap][Dab][Dab][dL][Abu][Dab][Dab]T; lactam 4-C) | 0.5 µg/mL (≈ 0.425 µM) | 0.5 µg/mL (≈ 0.425 µM) | 0.5 µg/mL (≈ 0.425 µM) | <0.125 µg/mL | <0.125 µg/mL | <0.125 µg/mL | <0.125 µg/mL | 0.5 µg/mL (≈ 0.425 µM) | 0.5 µg/mL (≈ 0.425 µM) | 0.5 µg/mL (≈ 0.425 µM) | <0.125 µg/mL | <0.125 µg/mL | 0.5 µg/mL (≈ 0.425 µM)
2 | CC[C@@H]1NC(=O)[C@@H](CC(C)C)NC(=O)[C@H](CCN)NC(=O)[C@@H](NC(=O)[C@H](CN)NC(=O)[C@@H](NC(=O)[C@H](CCN)NC(=O)c2cnc(-c3ccccc3)nc2)[C@@H](C)O)CCNC(=O)[C@H]([C@@H](C)O)NC(=O)[C@H](CCN)NC(=O)[C@H](CCN)NC1=O [Compound 73] (X16-[Dab]T[Dap][Dab][Dab][dL][Abu][Dab][Dab]T; lactam 4-C) | 2 µg/mL (≈ 1.71 µM) | 0.5 µg/mL (≈ 0.428 µM) | 0.5 µg/mL (≈ 0.428 µM) | <0.125 µg/mL | <0.125 µg/mL | 0.5 µg/mL (≈ 0.428 µM) | <0.125 µg/mL | 0.5 µg/mL (≈ 0.428 µM) | 0.5 µg/mL (≈ 0.428 µM) | 0.5 µg/mL (≈ 0.428 µM) | 1 µg/mL (≈ 0.855 µM) | <0.125 µg/mL | 0.5 µg/mL (≈ 0.428 µM)
3 | CC[C@@H]1NC(=O)[C@@H](CC(C)C)NC(=O)[C@H](CCN)NC(=O)[C@@H](NC(=O)[C@H](CN)NC(=O)[C@@H](NC(=O)[C@H](CCN)NC(=O)c2nc3ccccc3o2)[C@@H](C)O)CCNC(=O)[C@H]([C@@H](C)O)NC(=O)[C@H](CCN)NC(=O)[C@H](CCN)NC1=O [Compound 74] (X7-[Dab]T[Dap][Dab][Dab][dL][Abu][Dab][Dab]T; lactam 4-C) | 0.5 µg/mL (≈ 0.442 µM) | 0.5 µg/mL (≈ 0.442 µM) | 1 µg/mL (≈ 0.883 µM) | <0.125 µg/mL | <0.125 µg/mL | <0.125 µg/mL | 0.25 µg/mL (≈ 0.221 µM) | 0.25 µg/mL (≈ 0.221 µM) | 1 µg/mL (≈ 0.883 µM) | 0.25 µg/mL (≈ 0.221 µM) | 0.5 µg/mL (≈ 0.442 µM) | 0.25 µg/mL (≈ 0.221 µM) | 0.5 µg/mL (≈ 0.442 µM)
4 | CC[C@@H]1NC(=O)[C@@H](CC(C)C)NC(=O)[C@H](CCN)NC(=O)[C@@H](NC(=O)[C@H](CN)NC(=O)[C@@H](NC(=O)[C@H](CCN)NC(=O)c2noc3ccccc23)[C@@H](C)O)CCNC(=O)[C@H]([C@@H](C)O)NC(=O)[C@H](CCN)NC(=O)[C@H](CCN)NC1=O [Compound 75] (X39-[Dab]T[Dap][Dab][Dab][dL][Abu][Dab][Dab]T; lactam 4-C) | 1 µg/mL (≈ 0.883 µM) | 0.5 µg/mL (≈ 0.442 µM) | 1 µg/mL (≈ 0.883 µM) | <0.125 µg/mL | <0.125 µg/mL | <0.125 µg/mL | 0.25 µg/mL (≈ 0.221 µM) | 0.5 µg/mL (≈ 0.442 µM) | 0.5 µg/mL (≈ 0.442 µM) | 0.5 µg/mL (≈ 0.442 µM) | 1 µg/mL (≈ 0.883 µM) | 0.25 µg/mL (≈ 0.221 µM) | 0.5 µg/mL (≈ 0.442 µM)
5 | CC[C@@H]1NC(=O)[C@@H](CC(C)C)NC(=O)[C@H](CCN)NC(=O)[C@@H](NC(=O)[C@H](CN)NC(=O)[C@@H](NC(=O)[C@H](CCN)NC(=O)c2cc(Br)sc2Br)[C@@H](C)O)CCNC(=O)[C@H]([C@@H](C)O)NC(=O)[C@H](CCN)NC(=O)[C@H](CCN)NC1=O [Compound 76] (X67-[Dab]T[Dap][Dab][Dab][dL][Abu][Dab][Dab]T; lactam 4-C) | 0.5 µg/mL (≈ 0.398 µM) | 0.25 µg/mL (≈ 0.199 µM) | <0.125 µg/mL | 0.25 µg/mL (≈ 0.199 µM) | <0.125 µg/mL | <0.125 µg/mL | <0.125 µg/mL | 0.25 µg/mL (≈ 0.199 µM) | <0.125 µg/mL | 0.25 µg/mL (≈ 0.199 µM) | <0.125 µg/mL | <0.125 µg/mL | 0.25 µg/mL (≈ 0.199 µM)
